Results: publication PMC7948503, “Optimization of a peptide ligand for the adhesion GPCR ADGRG2 provides a potent tool to explore receptor biology” (The Journal of Biological Chemistry, 2020)
pEC50: −log10 of the molar value. Non-standard residues stand in square brackets, D forms with d. Residues, ends and D or L forms follow the SMILES beside them. Phe(4-Me) = Cc1ccc(C[C@H](N)C(=O)O)cc1

How the values were obtained:
Test in all cases: GloSensor cAMP assay
Type in all cases: cell-based
[1] = molecular target: T1, ADGRG2-ΔGPS-β V762A (Mus musculus, UniProt Q8CJ12, V776A); settings: mutant V762A; HEK293, cAMP Glosensor
T1 construct: expressed in transfected cells; host or cells: HEK293
T1 sequence (Q8CJ12 614-1009 V776A): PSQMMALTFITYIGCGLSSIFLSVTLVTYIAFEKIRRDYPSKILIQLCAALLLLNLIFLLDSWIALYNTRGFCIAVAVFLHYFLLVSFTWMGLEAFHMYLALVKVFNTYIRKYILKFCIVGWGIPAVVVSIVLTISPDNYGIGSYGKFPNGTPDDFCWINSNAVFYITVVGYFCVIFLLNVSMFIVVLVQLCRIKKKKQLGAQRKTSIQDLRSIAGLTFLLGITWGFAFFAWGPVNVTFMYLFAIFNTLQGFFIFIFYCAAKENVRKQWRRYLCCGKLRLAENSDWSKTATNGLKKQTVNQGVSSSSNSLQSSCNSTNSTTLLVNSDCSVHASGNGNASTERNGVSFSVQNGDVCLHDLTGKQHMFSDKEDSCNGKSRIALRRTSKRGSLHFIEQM
Source text: (§1) Wildtype ADGRG2 full-length (ADGRG2-FL) was cloned from mouse total cDNA libraries using the following primers: forward, […]; reverse, […], and then ADGRG2-FL, ADGRG2 C-terminal truncation mutant (ADGRG2-β), and ADGRG2-ΔGPS-β (the entire ECD of ADGRG2 was deleted) were subcloned into the pcDNA3.1 expression vector. The ADGRG2-ΔGPS-β mutants (T610A, Y611A, C614A, S661A, W662A, I663A, L665A, Y666A，N667A, F671A, L679A, L683A, I730A, V731A, F741A, F747A, W757A, I758A, N759A, S760A, V762A, F764A, Y765A, V768A, V769A, F772A, V774A, W824A, F826A, F828A, F829A, V834A, V836A, F838A, M839A, I844A, F845A) were generated using a QuikChange Mutagenesis Kit (Stratagene). All mutations were verified by DNA sequencing.
(§2) The Glosensor cAMP assay was performed as described ([6], [39], [40]). HEK293 cells were transfected with the GloSensor plasmid and the desired expression plasmids in 24-well dishes. Twenty-four hours after transfection, the cells were plated on 96-well plates at a cell density of 20,000 cells/well. The cells were maintained in Dulbecco’s modified Eagle’s medium for another 24 h, washed with PBS, and then incubated with 100 μl of solution containing 10% fetal bovine serum, 2% (v/v) GloSensor cAMP reagent, and 88% CO2-independent medium in each well for 2 h. The cAMP signal was examined using a luminescence counter (Mithras LB 940).

[2] = molecular target: T2, ADGRG2-ΔGPS-β I663A (Mus musculus, UniProt Q8CJ12, I677A); settings: mutant I663A; HEK293, cAMP Glosensor
T2 construct: expressed in transfected cells; host or cells: HEK293
T2 sequence (Q8CJ12 614-1009 I677A): as the sequence (Q8CJ12 614-1009 V776A) above, with I64A, A163V counted along it
Source text: as §1, §2

[3] = molecular target: T3, ADGRG2-ΔGPS-β F826A (Mus musculus, UniProt Q8CJ12, F840A); settings: mutant F826A; HEK293, cAMP Glosensor
T3 construct: expressed in transfected cells; host or cells: HEK293
T3 sequence (Q8CJ12 614-1009 F840A): as the sequence (Q8CJ12 614-1009 V776A) above, with A163V, F227A counted along it
Source text: as §1, §2

[4] = molecular target: T4, ADGRG2-ΔGPS-β V836A (Mus musculus, UniProt Q8CJ12, V850A); settings: mutant V836A; HEK293, cAMP Glosensor
T4 construct: expressed in transfected cells; host or cells: HEK293
T4 sequence (Q8CJ12 614-1009 V850A): as the sequence (Q8CJ12 614-1009 V776A) above, with A163V, V237A counted along it
Source text: as §1, §2

[5] = molecular target: T5, ADGRG2-ΔGPS-β I758A (Mus musculus, UniProt Q8CJ12, I772A); settings: mutant I758A; HEK293, cAMP Glosensor
T5 construct: expressed in transfected cells; host or cells: HEK293
T5 sequence (Q8CJ12 614-1009 I772A): as the sequence (Q8CJ12 614-1009 V776A) above, with I159A, A163V counted along it
Source text: as §1, §2

[6] = molecular target: T6, ADGRG2-ΔGPS-β F747A (Mus musculus, UniProt Q8CJ12, F761A); settings: mutant F747A; HEK293, cAMP Glosensor
T6 construct: expressed in transfected cells; host or cells: HEK293
T6 sequence (Q8CJ12 614-1009 F761A): as the sequence (Q8CJ12 614-1009 V776A) above, with F148A, A163V counted along it
Source text: as §1, §2

[7] = molecular target: T7, ADGRG2-ΔGPS-β M839A (Mus musculus, UniProt Q8CJ12, M853A); settings: mutant M839A; HEK293, cAMP Glosensor
T7 construct: expressed in transfected cells; host or cells: HEK293
T7 sequence (Q8CJ12 614-1009 M853A): as the sequence (Q8CJ12 614-1009 V776A) above, with A163V, M240A counted along it
Source text: as §1, §2

[8] = molecular target: T8, ADGRG2-ΔGPS-β V731A (Mus musculus, UniProt Q8CJ12, V745A); settings: mutant V731A; HEK293, cAMP Glosensor
T8 construct: expressed in transfected cells; host or cells: HEK293
T8 sequence (Q8CJ12 614-1009 V745A): as the sequence (Q8CJ12 614-1009 V776A) above, with V132A, A163V counted along it
Source text: as §1, §2

[9] = molecular target: T9, ADGRG2-ΔGPS-β C614A (Mus musculus, UniProt Q8CJ12, C628A); settings: mutant C614A; HEK293, cAMP Glosensor
T9 construct: expressed in transfected cells; host or cells: HEK293
T9 sequence (Q8CJ12 614-1009 C628A): as the sequence (Q8CJ12 614-1009 V776A) above, with C15A, A163V counted along it
Source text: as §1, §2

[10] = molecular target: T10, ADGRG2-ΔGPS-β V769A (Mus musculus, UniProt Q8CJ12, V783A); settings: mutant V769A; HEK293, cAMP Glosensor
T10 construct: expressed in transfected cells; host or cells: HEK293
T10 sequence (Q8CJ12 614-1009 V783A): as the sequence (Q8CJ12 614-1009 V776A) above, with A163V, V170A counted along it
Source text: as §1, §2

[11] = molecular target: T11, ADGRG2-ΔGPS-β I730A (Mus musculus, UniProt Q8CJ12, I744A); settings: mutant I730A; HEK293, cAMP Glosensor
T11 construct: expressed in transfected cells; host or cells: HEK293
T11 sequence (Q8CJ12 614-1009 I744A): as the sequence (Q8CJ12 614-1009 V776A) above, with I131A, A163V counted along it
Source text: as §1, §2

[12] = molecular target: T12, ADGRG2-ΔGPS-β F845A (Mus musculus, UniProt Q8CJ12, F859A); settings: mutant F845A; HEK293, cAMP Glosensor
T12 construct: expressed in transfected cells; host or cells: HEK293
T12 sequence (Q8CJ12 614-1009 F859A limits assumed): as the sequence (Q8CJ12 614-1009 V776A) above, with A163V, F246A counted along it
Source text: as §1, §2

[13] = molecular target: T13, ADGRG2-ΔGPS-β F772A (Mus musculus, UniProt Q8CJ12, F786A); settings: mutant F772A; HEK293, cAMP Glosensor
T13 construct: expressed in transfected cells; host or cells: HEK293
T13 sequence (Q8CJ12 614-1009 F786A): as the sequence (Q8CJ12 614-1009 V776A) above, with A163V, F173A counted along it
Source text: as §1, §2

[14] = molecular target: T14, ADGRG2-ΔGPS-β F828A (Mus musculus, UniProt Q8CJ12, F842A); settings: mutant F828A; HEK293, cAMP Glosensor
T14 construct: expressed in transfected cells; host or cells: HEK293
T14 sequence (Q8CJ12 614-1009 F842A): as the sequence (Q8CJ12 614-1009 V776A) above, with A163V, F229A counted along it
Source text: as §1, §2

[15] = molecular target: T15, ADGRG2-ΔGPS-β W824A (Mus musculus, UniProt Q8CJ12, W838A); settings: mutant W824A; HEK293, cAMP Glosensor
T15 construct: expressed in transfected cells; host or cells: HEK293
T15 sequence (Q8CJ12 614-1009 W838A): as the sequence (Q8CJ12 614-1009 V776A) above, with A163V, W225A counted along it
Source text: as §1, §2

[16] = molecular target: T16, ADGRG2-ΔGPS-β F671A (Mus musculus, UniProt Q8CJ12, F685A); settings: mutant F671A; HEK293, cAMP Glosensor
T16 construct: expressed in transfected cells; host or cells: HEK293
T16 sequence (Q8CJ12 614-1009 F685A): as the sequence (Q8CJ12 614-1009 V776A) above, with F72A, A163V counted along it
Source text: as §1, §2

[17] = molecular target: T17, ADGRG2-ΔGPS-β S661A (Mus musculus, UniProt Q8CJ12, S675A); settings: mutant S661A; HEK293, cAMP Glosensor
T17 construct: expressed in transfected cells; host or cells: HEK293
T17 sequence (Q8CJ12 614-1009 S675A): as the sequence (Q8CJ12 614-1009 V776A) above, with S62A, A163V counted along it
Source text: as §1, §2

[18] = molecular target: T18, ADGRG2-ΔGPS-β I741A (Mus musculus, UniProt Q8CJ12, I755A); settings: mutant I741A; HEK293, cAMP Glosensor
T18 construct: expressed in transfected cells; host or cells: HEK293
T18 sequence (Q8CJ12 614-1009 I755A): as the sequence (Q8CJ12 614-1009 V776A) above, with I142A, A163V counted along it
Source text: as §1, §2

[19] = molecular target: T19, ADGRG2-ΔGPS-β F764A (Mus musculus, UniProt Q8CJ12, F778A); settings: mutant F764A; HEK293, cAMP Glosensor
T19 construct: expressed in transfected cells; host or cells: HEK293
T19 sequence (Q8CJ12 614-1009 F778A): as the sequence (Q8CJ12 614-1009 V776A) above, with A163V, F165A counted along it
Source text: as §1, §2

[20] = molecular target: T20, ADGRG2-ΔGPS-β T610A (Mus musculus, UniProt Q8CJ12, T624A); settings: mutant T610A; HEK293, cAMP Glosensor
T20 construct: expressed in transfected cells; host or cells: HEK293
T20 sequence (Q8CJ12 614-1009 T624A): as the sequence (Q8CJ12 614-1009 V776A) above, with T11A, A163V counted along it
Source text: as §1, §2

SMILES: CC[C@H](C)[C@H](NC(=O)CNC(=O)[C@H](Cc1ccc(C)cc1)NC(=O)[C@H](CO)NC(=O)[C@@H](N)C(C)C)C(=O)N[C@@H](CC(C)C)C(=O)N[C@@H](CC(C)C)C(=O)N[C@@H](CC(=O)O)C(=O)N[C@@H](CC(C)C)C(=O)N[C@@H](CO)C(=O)N[C@@H](CCCNC(=N)N)C(=O)N[C@H](C(=O)N[C@@H](CO)C(=O)N[C@@H](CC(C)C)C(=O)N1CCC[C@H]1C(=O)O)[C@@H](C)O [VPM-p15] (H-VS[Phe(4-Me)]GILLDLSRTSLP-OH)
- pEC50 [1]: 5.63
- pEC50 [2]: 5.92
- pEC50 [3]: 5.18
- pEC50 [4]: 5.38
- pEC50 [5]: 4.86
- pEC50 [6]: 5.95
- pEC50 [7]: 5.76
- pEC50 [8]: 5.91
- pEC50 [9]: 5.66
- pEC50 [10]: 5.77
- pEC50 [11]: 5.88
- pEC50 [12]: 5.49
- pEC50 [13]: 5.66
- pEC50 [14]: 5.41
- pEC50 [15]: 5.01
- pEC50 [16]: 5.92
- pEC50 [17]: 5.63
- pEC50 [18]: 5.81
- pEC50 [19]: 6.03
- pEC50 [20]: 5.99
